The target of assay [1] is Metabotropic glutamate receptor 5 (Rattus norvegicus) (UniProt P31424). Description: Displacement of [3H]-M-MPEP from mGluR5 in rat cerebrocortical membrane preparation at 1 uM. It is filed as cell membranes.
Assay [2] addresses T1, Metabotropic glutamate receptor 5 (Rattus norvegicus, UniProt P31424). Briefly: Displacement of [3H]-M-MPEP from mGluR5 in rat cerebrocortical membrane preparation. It is filed as cell membranes.
Assay [3] concerns the target T1, Metabotropic glutamate receptor 5. Description: Inhibition of mGluR5 in rat embryo neuronal culture assessed as calcium level by Fluo-4/AM dye based fluorometry. In kind it is functional.
The test system of assay [4] is Rattus norvegicus. Briefly: Anxiolytic activity in ip dosed rat assessed as increase in number of shocks measured for 30 mins Vogel punished drinking model. It is filed as functional, organism-based.

The record followed here is ChEMBL document CHEMBL3352069, “Thieno[2,3-b]pyridines as negative allosteric modulators of metabotropic GluR5 receptors: hit-to-lead optimization” (Bioorg Med Chem Lett, 2014).

A word on the inhibition: it is the drop in the measured response relative to a control, in per cent. A word on the Ki: it is the dissociation constant of the complex between target and ligand, obtained from inhibition or displacement. In general, IC50 refers to the point on the concentration scale where inhibition reaches its midpoint.

T1 sequence (P31424 whole entry): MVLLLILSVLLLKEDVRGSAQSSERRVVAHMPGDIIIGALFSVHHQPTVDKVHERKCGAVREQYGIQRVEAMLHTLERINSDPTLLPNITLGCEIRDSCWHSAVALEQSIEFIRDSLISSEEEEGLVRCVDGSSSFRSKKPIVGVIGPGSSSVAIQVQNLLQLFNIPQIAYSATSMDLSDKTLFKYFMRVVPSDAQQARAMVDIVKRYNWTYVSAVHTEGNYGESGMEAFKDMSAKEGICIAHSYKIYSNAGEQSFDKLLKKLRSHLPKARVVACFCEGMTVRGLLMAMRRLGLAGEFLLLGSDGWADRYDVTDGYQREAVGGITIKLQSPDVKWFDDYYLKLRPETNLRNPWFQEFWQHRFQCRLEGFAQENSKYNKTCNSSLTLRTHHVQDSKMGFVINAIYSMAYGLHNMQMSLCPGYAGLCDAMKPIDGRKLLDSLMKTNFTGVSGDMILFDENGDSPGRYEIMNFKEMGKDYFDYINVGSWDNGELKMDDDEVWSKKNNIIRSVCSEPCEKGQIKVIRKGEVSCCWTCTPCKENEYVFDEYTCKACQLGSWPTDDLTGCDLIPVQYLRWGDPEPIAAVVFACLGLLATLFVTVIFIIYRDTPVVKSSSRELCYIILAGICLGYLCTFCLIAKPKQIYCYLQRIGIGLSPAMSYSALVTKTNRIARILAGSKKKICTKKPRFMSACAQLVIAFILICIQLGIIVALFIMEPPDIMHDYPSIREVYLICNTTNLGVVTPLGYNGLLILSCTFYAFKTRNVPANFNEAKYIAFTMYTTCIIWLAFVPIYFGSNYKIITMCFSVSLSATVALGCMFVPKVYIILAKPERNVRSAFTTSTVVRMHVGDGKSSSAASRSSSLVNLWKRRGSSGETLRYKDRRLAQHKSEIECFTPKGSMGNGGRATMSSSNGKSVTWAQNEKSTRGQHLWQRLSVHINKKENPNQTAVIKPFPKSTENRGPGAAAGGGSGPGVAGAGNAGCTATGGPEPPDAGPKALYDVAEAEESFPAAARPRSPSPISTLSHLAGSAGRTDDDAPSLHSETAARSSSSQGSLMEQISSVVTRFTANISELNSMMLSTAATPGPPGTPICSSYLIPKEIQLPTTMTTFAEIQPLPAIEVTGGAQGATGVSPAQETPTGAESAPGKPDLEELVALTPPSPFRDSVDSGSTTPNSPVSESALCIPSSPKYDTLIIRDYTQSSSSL
Sequence of Metabotropic glutamate receptor 5 (Rattus norvegicus) (P31424 21-1203 limits assumed): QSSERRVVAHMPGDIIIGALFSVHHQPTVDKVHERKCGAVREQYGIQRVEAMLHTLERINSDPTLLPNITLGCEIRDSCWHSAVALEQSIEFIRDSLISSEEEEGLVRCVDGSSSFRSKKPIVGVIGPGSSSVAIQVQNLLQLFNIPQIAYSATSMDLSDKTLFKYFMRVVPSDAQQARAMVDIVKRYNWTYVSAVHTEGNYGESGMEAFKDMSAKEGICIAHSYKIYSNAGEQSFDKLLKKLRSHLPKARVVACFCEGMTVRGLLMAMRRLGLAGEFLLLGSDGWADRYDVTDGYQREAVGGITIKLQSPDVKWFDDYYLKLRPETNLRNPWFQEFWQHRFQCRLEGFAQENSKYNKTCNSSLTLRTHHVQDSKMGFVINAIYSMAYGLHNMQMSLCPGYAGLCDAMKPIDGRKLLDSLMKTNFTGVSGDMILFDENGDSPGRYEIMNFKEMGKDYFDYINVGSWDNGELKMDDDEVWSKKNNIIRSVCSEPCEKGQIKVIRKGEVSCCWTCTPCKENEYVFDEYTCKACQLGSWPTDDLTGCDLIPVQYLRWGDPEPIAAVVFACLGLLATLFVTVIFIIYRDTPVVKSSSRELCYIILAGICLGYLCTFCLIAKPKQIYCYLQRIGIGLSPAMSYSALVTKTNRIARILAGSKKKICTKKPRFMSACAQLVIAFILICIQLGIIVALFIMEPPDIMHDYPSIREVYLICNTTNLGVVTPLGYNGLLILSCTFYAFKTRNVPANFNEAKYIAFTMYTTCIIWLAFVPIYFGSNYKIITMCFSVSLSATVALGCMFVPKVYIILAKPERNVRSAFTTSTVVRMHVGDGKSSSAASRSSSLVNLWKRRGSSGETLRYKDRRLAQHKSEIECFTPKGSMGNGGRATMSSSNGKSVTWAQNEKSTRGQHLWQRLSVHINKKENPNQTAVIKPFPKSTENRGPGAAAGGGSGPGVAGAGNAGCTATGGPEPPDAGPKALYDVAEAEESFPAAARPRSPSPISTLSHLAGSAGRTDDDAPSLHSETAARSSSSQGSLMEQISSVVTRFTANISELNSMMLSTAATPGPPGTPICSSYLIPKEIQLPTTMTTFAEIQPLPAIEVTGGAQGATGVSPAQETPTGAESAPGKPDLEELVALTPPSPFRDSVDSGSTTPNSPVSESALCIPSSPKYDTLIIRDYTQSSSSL

In assay [1], `c1ccc(-c2csc3ncccc23)cc1` registered an inhibition of 0%.
In assay [1], `Fc1ccc(-c2c(C3=NOC(c4ccc(F)cc4)C3)sc3ncccc23)cc1` (stereo not given) came in with an inhibition of 52%.
`COc1ccc(CCC(=O)c2sc3ncccc3c2-c2ccccc2)cc1` gave a Ki in assay [2] of 2500 nM. Besides, the half-maximal inhibitory concentration (IC50) in assay [3] was 8000 nM.
In assay [1], `CN(Cc1ccc(F)cc1)C(=O)c1sc2ncccc2c1-c1ccc(Cl)cc1` came in with an inhibition of 13%.
For `O=C(Cc1ccc(F)cc1)c1sc2ncccc2c1-c1ccc(Cl)cc1`, in assay [2], the Ki came out at 83 nM. Besides, the IC50 in assay [3] turned out to be 350 nM.
With `O=C(CCc1ccccc1)c1sccc1-c1ccc(F)cc1`, the inhibition in assay [1] amounted to 0%.
For `Fc1ccc(-c2nc(-c3sc4ncccc4c3-c3ccc(Cl)cc3)no2)cc1`, the inhibition in assay [1] was found to be 0%.
On the same count and under the same terms, the figure for `O=C(Oc1ccc(F)cc1)c1sc2ncccc2c1-c1ccc(Cl)cc1` is 15%.
`O=C(CCc1ccc(F)cc1)c1sc2ncccc2c1-c1ccccc1` registered a Ki in assay [2] of 343 nM. Besides, in assay [3], the half-maximal inhibitory concentration (IC50) came to 2100 nM.
Compound `O=C(NCc1ccc(F)cc1)c1sc2ncccc2c1-c1ccc(F)cc1` came in with a Ki in assay [2] of 311 nM.
The compound `O=C(CCc1ccccc1)c1sccc1-c1ccccc1` showed an inhibition in assay [1] of 0%.
Take `CN(C(=O)c1sc2ncccc2c1-c1ccc(F)cc1)c1ccc(F)cc1`: the inhibition in assay [1] is 19%.
In turn, `O=C(CCc1ccc(F)cc1)c1[nH]c2ccccc2c1-c1ccc(F)cc1` came in with an inhibition in assay [1] of 4%.
`OC(CCc1ccc(F)cc1)c1sc2ncccc2c1-c1ccc(F)cc1` (stereo not given) showed an inhibition in assay [1] of 3%.
As for `Fc1ccc(-c2nnc(-c3sc4ncccc4c3-c3ccc(Cl)cc3)o2)cc1`, in assay [1], the inhibition was 24%.
In assay [1], `O=C(Nc1ccc(F)cc1)c1sc2ncccc2c1-c1ccc(Cl)cc1` registered an inhibition of 0%.
For `O=C(c1ccc(Cl)cc1)c1sc2ncccc2c1-c1ccc(F)cc1`, the inhibition in assay [1] was found to be 30%.
`O=S(=O)(c1ccc(Cl)cc1)c1sc2ncccc2c1-c1ccc(Cl)cc1`: the inhibition constant (Ki) in assay [2] is 12.3 nM. For the same compound, the Activity result in assay [4] was “Dose-dependent effect”. For the same compound, the concentration for half-maximal inhibition (IC50) in assay [3] came to 46 nM.
In turn, `Fc1ccc(CCCc2sc3ncccc3c2-c2ccc(F)cc2)cc1` displayed an inhibition in assay [1] of 0%.
Turning to `O=C(CCc1cccc(F)c1)c1sc2ncccc2c1-c1ccc(F)cc1`, the inhibitory constant (Ki) in assay [2] stood at 224 nM.
In assay [1], `CC(=O)c1sc2ncccc2c1-c1ccccc1` registered an inhibition of 17%.
For `O=C(CCc1ccc(F)cc1)c1sc2ncccc2c1-c1ccc(F)cc1`, the affinity in assay [2], expressed as Ki, was 180 nM. The IC50 in assay [3] is 1000 nM.
In assay [2], `O=C(CCc1ccccc1)c1sc2ncccc2c1-c1ccccc1` gave a Ki of 730 nM. Besides, the half-inhibitory concentration (IC50) in assay [3] was 3300 nM.
Turning to `O=C(OCc1ccc(F)cc1)c1sc2ncccc2c1-c1ccc(Cl)cc1`, in assay [2], the inhibitory constant (Ki) was 41 nM. The concentration for half-maximal inhibition (IC50) in assay [3] is 150 nM.
The compound `O=C(CCc1ccc(F)cc1)c1sc2ccccc2c1-c1ccc(F)cc1` came in with an inhibition in assay [1] of 8%.
Compound `O=C(Cc1ccc(F)cc1)c1sc2ncccc2c1-c1ccc(F)cc1` registered a Ki in assay [2] of 140 nM. That is a sub-micromolar value.
In assay [1], `Fc1ccc(C/C=C/c2sc3ncccc3c2-c2ccc(F)cc2)cc1` came in with an inhibition of 12%.
